From publication PMC10011573, “Development of novel broad-spectrum antimicrobial lipopeptides derived from plantaricin NC8 β” (Scientific Reports, 2023)
≈ marks a conversion by molar mass, not a printed value. Like-named read-outs stand apart in the source and are kept apart here. Residues, ends and D or L forms follow the SMILES beside them. *: point of attachment. Pentanoyl = CCCCC(=O)*

Tests used:
[1] = Dynamic light scattering, critical aggregation concentration; type: physicochemical; conditions: DLS scattering intensity at 90°, 10 mM PBS pH 7.4, serial dilution 100 µM to 0.01 nM, 22 °C, average of 10 runs of 30 s; estimated
Procedure: Lipopeptide aggregation was evaluated on a ALV/CGS-8F Platform (ALV-GmbH, Langen, Germany) equipped with a […] He–Ne laser. Scattered light was collected at 90°. PBS (10 mM, pH 7.4) was chosen as buffer, and filtered with a 0.22 µm filter prior to use. The samples were prepared in a cylindrical glass cuvette immersed in refractive-index matching toluene. The peptides were serially diluted between 100 µM and 0.01 nM, sonicated for 1 min and incubated for 5 min at 22 °C and vortexed prior to measuring. The temperature was controlled throughout the experiment with the use of a circulating water bath. Data were analysed with ALV-Correlator (Version 3.0, ALV-GmbH, Langen, Germany) software, and the scattering intensity was obtained through an average of 10 consecutive 30 s runs.

[2] = system: S. aureus (ATCC 29213); type: cell-based; conditions: ATCC 29213, 20 h
[3] = system: S. aureus
Procedure: (§1) In order to evaluate the risk of the development of resistance towards the lipopeptide, a serial passage assay was conducted. […] MIC and MBC were determined for passages 0, 10, 20 and 30, using the broth microdilution method and compared with the unexposed bacteria (passage 0).

[4] = system: E. coli
Procedure: as §1

[5] = Carboxyfluorescein release assay, bacterial liposome model; type: biochemical; conditions: 75:25 POPC:POPG liposomes, 25 µM lipid, 10 mM PBS pH 7.4, 10^–5–10^2 µM peptide, 60 min, fluorescence, Hill fit, n = 3; read-out: EC50 Bacterial (concentration that triggers 50% CF release)
In short: (§2)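 CF-loaded extruded 0.1 µm unilamellar liposomes: bacterial POPC:POPG 75:25, mammalian POPC:POPS:Chol 65:5:30. Liposomes at 25 µM lipid in PBS pH 7.4 incubated with peptide (10^–5–10^2 µM; n = 3), fluorescence read every 2.5 min for 1 h. Release normalized to 1% Triton X-100; EC50 from Hill-1 fit.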

[6] = system: E. coli (K-12 MG1655); type: cell-based; conditions: K-12, 20 h
Procedure: The broth microdilution method was used to determine minimal inhibitory concentration (MIC) and minimal bactericidal concentration (MBC), in accordance with the EUCAST standards for the broth microdilution method. Two-fold serial dilutions of the lipopeptides were used, and the final concentrations ranged from 0.19 to 100 µM. In brief, two-fold serial dilutions of the lipopeptides were performed in a 96-well plate in PBS, with a final volume of 100 µl per well, after which 100 µl of LB-broth media containing approximately 5 × 10^5 CFU/ml of bacteria was added to each well. The plate was then incubated for 20 h in 37 °C on a shaker (400 rpm). The effect of lipopeptide-antibiotic combinations was investigated by performing checkerboard assays. The assays were performed in accordance with the MIC and MBC tests conducted above, but with horizontal and longitudinal two-fold serial dilutions of the tested compounds. […] The fractional inhibitory concentration (FIC) and fractional bactericidal concentration (FBC) were calculated by the equation (MIC or MBC of peptide in combination/MIC or MBC of peptide alone) + (MIC or MBC of antibiotic in combination/MIC or MBC of antibiotic alone). Synergy was defined as FIC/FBC ≤ 0.5, additive when 0.5 < FIC/FBC ≤ 1, indifferent when 1 < FIC/FBC < 2 and antagonistic when FIC/FBC ≥ 2. All experiments were repeated at least three times.

[7] = Carboxyfluorescein release assay, mammalian liposome model; type: biochemical; conditions: 65:5:30 POPC:POPS:Chol. liposomes, 25 µM lipid, 10 mM PBS pH 7.4, 10^–5–10^2 µM peptide, 60 min, fluorescence, Hill fit, n = 3; read-out: EC50 Mammalial (concentration that triggers 50% CF release)
In short: as §2

[8] = S. aureus p0 (unexposed bacteria, passage 0)
[9] = S. aureus p10, cultured with 1 µM L-6-C5 in LB-broth
[10] = S. aureus p20, cultured with 1 µM L-6-C5 in LB-broth
[11] = S. aureus p30, cultured with 1 µM L-6-C5 in LB-broth
[12] = E. coli p0 (unexposed bacteria, passage 0)
[13] = E. coli p10, cultured with 1 µM L-6-C5 in LB-broth
[14] = E. coli p20, cultured with 1 µM L-6-C5 in LB-broth
[15] = E. coli p30, cultured with 1 µM L-6-C5 in LB-broth

## CCCCC(=O)N[C@@H](CC(C)C)C(=O)NCC(=O)N[C@H](C(=O)N[C@@H](CCCCN)C(=O)N[C@H](C(=O)N[C@@H](CC(C)C)C(=O)N[C@@H](Cc1c[nH]c2ccccc12)C(=O)N[C@@H](CO)C(=O)N[C@@H](C)C(=O)N[C@@H](Cc1ccc(O)cc1)C(=O)N[C@@H](CCCCN)C(=O)N[C@@H](Cc1c[nH]cn1)C(=O)N[C@@H](CCCNC(=N)N)C(=O)N[C@@H](CCCCN)C(=O)N[C@H](C(=O)N[C@H](C(N)=O)[C@@H](C)CC)[C@@H](C)O)[C@@H](C)CC)[C@@H](C)CC [L-6-C5] (Pentanoyl-LGIKILWSAYKHRKTI-NH2)
[1]
  critical aggregation concentration (CAC): 5.6 µM
[2]
  S. aureus MBC, lipopeptide alone: 6.25 µM
  S. aureus MIC, lipopeptide alone: 6.25 µM
[3]; [8]
  MBC: 6.3 µM (≈ 12.7 µg/mL)
  MIC: 6.3 µM (≈ 12.7 µg/mL)
[3]; [9]
  MBC: 6.3 µM (≈ 12.7 µg/mL)
  MIC: 6.3 µM (≈ 12.7 µg/mL)
[3]; [10]
  MBC: 6.3 µM (≈ 12.7 µg/mL)
  MIC: 6.3 µM (≈ 12.7 µg/mL)
[3]; [11]
  MBC: 6.3 µM (≈ 12.7 µg/mL)
  MIC: 6.3 µM (≈ 12.7 µg/mL)
[4]; [12]
  MBC: 6.3 µM (≈ 12.7 µg/mL)
  MIC: 6.3 µM (≈ 12.7 µg/mL)
[4]; [13]
  MBC: 6.3 µM (≈ 12.7 µg/mL)
  MIC: 6.3 µM (≈ 12.7 µg/mL)
[4]; [14]
  MBC: 6.3 µM (≈ 12.7 µg/mL)
  MIC: 6.3 µM (≈ 12.7 µg/mL)
[4]; [15]
  MBC: 6.3 µM (≈ 12.7 µg/mL)
  MIC: 6.3 µM (≈ 12.7 µg/mL)
[5]
  EC50: 0.11 µM
[6]
  E. coli MBC, lipopeptide alone: 6.25 µM
  E. coli MIC, lipopeptide alone: 6.25 µM
[7]
  EC50: 10.5 µM
